Measurements reported in article PMC3908613 (Bioscience Reports, 2014).
pIC50: −log10 of the molar value.

What was measured:
PLK1 = conditions: cited from earlier work
Mst1 = molecular target: T1, Mst1 (Mus musculus, UniProt Q9JI11); assay: Activity of Mst1 immunoprecipitated from BMDC; format: biochemical, C57BL/6 mice; conditions: immunoprecipitates treated with 1 μM D1870; resting and LPS-stimulated DC
T1 construct: Mst1, Lok and Slk were immunoprecipated from 150 μg, 850 μg and 1 mg of cell lysates respectively; endogenous in cells; host or cells: mouse bone-marrow-derived dendritic cells (BMDC), immunoprecipitate
T1 sequence (Q9JI11 1-487): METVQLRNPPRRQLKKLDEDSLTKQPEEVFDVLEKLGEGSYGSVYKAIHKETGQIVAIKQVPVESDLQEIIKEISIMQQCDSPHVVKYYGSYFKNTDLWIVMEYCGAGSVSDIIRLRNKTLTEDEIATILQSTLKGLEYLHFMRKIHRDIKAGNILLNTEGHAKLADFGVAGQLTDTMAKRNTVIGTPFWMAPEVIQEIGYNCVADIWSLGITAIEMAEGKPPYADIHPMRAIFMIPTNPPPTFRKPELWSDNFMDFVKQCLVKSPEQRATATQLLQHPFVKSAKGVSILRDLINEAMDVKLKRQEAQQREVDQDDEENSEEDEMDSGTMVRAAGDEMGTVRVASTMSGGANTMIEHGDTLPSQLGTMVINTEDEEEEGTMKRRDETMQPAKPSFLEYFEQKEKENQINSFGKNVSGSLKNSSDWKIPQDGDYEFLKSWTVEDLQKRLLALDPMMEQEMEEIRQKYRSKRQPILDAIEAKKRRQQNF
Protocol: Equal numbers of BMDC (1×10^7/dish) were incubated in 15 cm dishes in RPMI supplemented with 0.3% FCS for 3 h at 37°C then incubated for 30 min with or without 50 ng/ml LPS. The cells were washed once in cold PBS and lysed in the lysis buffer described above. Mst1, Lok and Slk were immunoprecipated from 150 μg, 850 μg and 1 mg of cell lysates respectively with 2 μg of anti-MST1 (Cell Signalling), anti-Slk (Bethyl) or anti-Lok (Bethyl) or control IgG (Santa Cruz Biotech) coupled to G-protein Sepharose (Amersham) for 1 h at 4°C. […] Kinase assays were performed as described above.
A combination of SILAC and nucleotide acyl
Alexander J. EDGAR*, Matthias TROST†, Colin WATTS*1 and Rossana ZARU*1
*Division of Cell Signalling and Immunolog y, University of Dundee, Dow Street, Dundee DD1 5EH, U.K., and †MRC Protein Phosphor ylation and Ubiquitylation Unit, College of Life Sciences, University of Dundee, Dow Street, Dundee DD1 5EH, U.K.
Supplementary Table S1 is available at http://www.bioscirep.
Mst1, Lok and Slk activities in DC either unstimulated or stimulated with LPS (50 ng/ml) for 30 min at 37 ◦ C. Immuno- […]
of triplicate stimulations. *P < 0.05, **P < 0.01, ***P < 0.001, ns not signiﬁcant.
1 Correspondence may be addressed to either of these authors (email c.watts@dundee.ac.uk or r.zaru@dundee.ac.uk). […]

BMDC = assay: FITC-dextran uptake (macropinocytosis) by BMDC; format: cell-based, C57BL/6 mice; conditions: LPS 50 ng/ml, FITC-dextran 1 mg/ml; Akt-i at 1 μM
Protocol: DCs were generated from the bone marrow or the spleen of C57BL/6 mice as previously described. Briefly, bone marrow cells were cultured for 7 days at 37°C, 5% (v/v) CO2 in complete RPMI medium supplemented with 10 ng/ml recombinant granulocyte–macrophage colony-stimulating factor (GM-CSF; Peprotech). Spleen cells were cultured for 14 days at 37°C, 5% CO2 in complete RPMI containing 10 ng/ml GM-CSF and 1 ng/ml TGFβ (transforming growth factor-β; R&D Systems). NIH3T3 cells (European Cell Culture Collection) were cultured in DMEM (Dulbecco's modified Eagle's medium) supplemented with glutamine, penicillin, streptomycin and 10% (v/v) calf serum (Invitrogen).
FITC-dextran uptake was measured as described. […] In some experiments, cells were pre-treated with 1 μM Akt-i (Merck) for 30 min. Cells were left unstimulated or were stimulated with 50 ng/ml LPS for 20 min at 37°C followed by the addition of 1 mg/ml FITC dextran (Invitrogen) for 10 min at 37°C. Cells were washed four times at 4°C in PBS supplemented with 2% (v/v) FCS (foetal calf serum) and then stained with APC (allophycocyanin)-labelled anti-CD11c antibody (BD biosciences). FITC dextran uptake was measured on an FACS Calibur (BD biosciences).

p38 = assay: Desthiobiotin-ATP probe capture on streptavidin beads, Western blot; format: binding, C57BL/6 mice; conditions: 10 μM inhibitor, DC lysate
Protocol: (§1) SDC were cultured for at least 14 days in RPMI (without arginine and lysine, custom-made by Biosera) containing 10% dialysed FCS (Hyclone) supplemented with 84 mg/l of L-arginine (Sigma) and 40 mg/l L-lysine (Sigma) for the 'light' medium or 84 mg/l of […] or ^13C10 and 40 mg/l […] (Cambridge Isotope Laboratory) for the 'heavy' medium. Equal numbers (2×10^7) of 'light' or 'heavy' labelled SDCs were incubated in RPMI containing 0.5% FCS for 3 h in 15 cm dishes. The cells were lysed in the lysis buffer provided in the kit (Pierce). […] Labelling with the desthiobiotin ATP probe, and precipitation with streptavidin beads were performed according to the manufacturer's instructions (Pierce kinase enrichment kit or ActivXTM).

Erk1/2 = molecular target: T2, Erk1/2 (Mus musculus, UniProt P63085); assay: as above; format: binding, C57BL/6 mice; conditions: 10 μM inhibitor, DC lysate
T2 construct: recovered on streptavidin beads following desthiobiotin-ATP labelling of DC lysates including Rsk2, Erk1/2 and p38; endogenous in cells; host or cells: mouse spleen-derived dendritic cells (SDC), lysate
T2 sequence (P63085 2-358): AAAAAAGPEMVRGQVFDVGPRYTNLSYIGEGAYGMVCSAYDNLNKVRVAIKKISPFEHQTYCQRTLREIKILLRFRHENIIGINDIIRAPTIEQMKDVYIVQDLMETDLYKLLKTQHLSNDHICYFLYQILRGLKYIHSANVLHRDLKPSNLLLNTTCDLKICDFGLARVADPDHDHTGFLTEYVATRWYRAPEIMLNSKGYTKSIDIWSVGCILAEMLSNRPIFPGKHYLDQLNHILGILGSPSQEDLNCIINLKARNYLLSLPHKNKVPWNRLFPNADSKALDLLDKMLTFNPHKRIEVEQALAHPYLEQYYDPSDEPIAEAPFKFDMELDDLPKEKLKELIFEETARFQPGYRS
Protocol: as §1

rSlk = molecular target: T3, rSlk (Homo sapiens, UniProt Q9H2G2); assay: Kinase assay for recombinant Slk; format: biochemical; conditions: 25 μM ATP, bovine histone H1 substrate
T3 construct: purchased Millipore
T3 sequence (Q9H2G2 whole entry): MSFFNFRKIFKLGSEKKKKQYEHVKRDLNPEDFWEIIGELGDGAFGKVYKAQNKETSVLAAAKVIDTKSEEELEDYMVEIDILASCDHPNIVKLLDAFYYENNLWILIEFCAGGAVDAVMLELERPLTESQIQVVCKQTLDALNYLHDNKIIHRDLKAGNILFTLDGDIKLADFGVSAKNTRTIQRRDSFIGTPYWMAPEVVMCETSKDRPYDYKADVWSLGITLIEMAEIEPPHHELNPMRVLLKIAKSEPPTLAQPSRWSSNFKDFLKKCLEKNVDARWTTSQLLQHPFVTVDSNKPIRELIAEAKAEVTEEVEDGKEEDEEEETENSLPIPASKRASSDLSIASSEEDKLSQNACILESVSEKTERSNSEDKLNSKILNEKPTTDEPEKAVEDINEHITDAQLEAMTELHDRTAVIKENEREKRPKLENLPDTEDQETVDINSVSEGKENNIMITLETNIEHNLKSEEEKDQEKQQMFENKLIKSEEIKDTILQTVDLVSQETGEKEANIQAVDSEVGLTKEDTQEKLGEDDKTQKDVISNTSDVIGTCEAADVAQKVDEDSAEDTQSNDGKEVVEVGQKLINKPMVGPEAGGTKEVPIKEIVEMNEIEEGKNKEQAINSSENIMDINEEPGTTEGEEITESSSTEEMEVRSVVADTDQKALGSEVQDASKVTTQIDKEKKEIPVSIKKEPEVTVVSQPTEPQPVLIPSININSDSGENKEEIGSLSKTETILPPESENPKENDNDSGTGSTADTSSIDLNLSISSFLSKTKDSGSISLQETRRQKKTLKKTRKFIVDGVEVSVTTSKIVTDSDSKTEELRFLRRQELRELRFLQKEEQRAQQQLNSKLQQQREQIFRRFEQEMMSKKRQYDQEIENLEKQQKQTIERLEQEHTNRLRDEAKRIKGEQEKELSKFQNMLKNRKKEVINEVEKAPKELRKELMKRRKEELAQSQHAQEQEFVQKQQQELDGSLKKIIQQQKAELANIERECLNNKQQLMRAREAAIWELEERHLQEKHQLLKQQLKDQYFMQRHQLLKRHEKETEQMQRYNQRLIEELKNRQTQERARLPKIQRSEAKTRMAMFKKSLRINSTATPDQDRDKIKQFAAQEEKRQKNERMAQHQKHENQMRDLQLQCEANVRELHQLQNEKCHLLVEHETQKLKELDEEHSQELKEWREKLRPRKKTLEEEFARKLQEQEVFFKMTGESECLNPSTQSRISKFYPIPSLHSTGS
Protocol: The kinase reaction for Lok and Slk was supplemented with 12.5 mM sodium glycerophosphate and 0.25 mM sodium orthovanadate. The reactions were incubated for 15–20 min at 30°C then terminated and analysed as described previously [14].

## CC(C)CCN1c2nc(Nc3cc(F)c(O)c(F)c3)ncc2N(C)C(=O)C1C (stereo not drawn) [D1870, BI-D1870]
PLK1
  pIC50: […]
Mst1
  kinase activity of Mst1 immunoprecipitated from DC: substantially inhibited
BMDC
  LPS-mediated dextran uptake: completely blocked
p38
  capture of p38 on streptavidin beads: not Erk1/2 or p38, was blocked
Erk1/2
  capture of Erk1/2 on streptavidin beads: not Erk1/2 or p38, was blocked
rSlk
  pIC50: 6.60
